The source of these data is patent US20200283734A1, “REPROGRAMMING OF A DIFFERENTIATED CELL TO AN UNDIFFERENTIATED CELL USING EXOSOME” (AGENCY FOR SCIENCE, TECHNOLOGY AND RESEARCH, priority 2017, published 2020).

One experiment relates to MCF7 EX-iCSCs. As to the kind of experiment: Drug resistance assay (Alamar Blue cell viability), MCF7. The experiment is classed as cell-based. The note with it: for drug resistance characteristics of EX-iCSCs towards cancer drugs: MCF7 EX-iCSCs (FIG. 17). How it is done: (§1) H7-exosome treated and non-treated A431 and MCF7 cancer cells were seeded at a density of 3×10^3 cells per well in a 96-well plate, in their respective medium. The anticancer drugs, cisplatin, doxorubicin and sunitinib were then added in concentration series ranging from 0.1 to 1000, 0.001 to 10, and 0.1 to 1000 μg/mL, respectively. After time periods of 24, 48 and 72 hours, the cells were subjected to an Alamar Blue assay for cell viability.
(§2) Drug resistance has been associated with stem cell-like traits in cancer cells. The MCF7 and A431 cell lines were treated with exosomes to induce EX-iCSCs, following which they were subjected to viability (Alamar Blue) assays (FIG. 16, FIG. 17).
For orientation: The colour change of resazurin is a common sign of viable cells or microbes.

Another experiment concerns A431 EX-iCSCs. As to the kind of experiment: Drug resistance assay (Alamar Blue cell viability), A431. Type of experiment: cell-based. The settings on record: A431 EX-iCSCs (FIG. 16). How it is done: as §1, §2

As to `N.N.[Cl][Pt][Cl]` [cisplatin], the “drug resistance characteristics of EX-iCSCs towards cancer drugs” value with MCF7 EX-iCSCs and in the experiment on A431 EX-iCSCs was “showed drug resistance characteristics” throughout.
With `COc1cccc2c1C(=O)c1c(O)c3c(c(O)c1C2=O)C[C@@](O)(C(=O)CO)C[C@@H]3O[C@H]1C[C@H](N)[C@H](O)[C@H](C)O1` [doxorubicin], the “viability of exosome-treated cells under drug compared to non-treated cells” value with MCF7 EX-iCSCs (MCF7, H7-exosome treated, all time points (24, 48 and 72 hours)) was “significantly higher viability”. Further, the “drug resistance characteristics of EX-iCSCs towards cancer drugs” value in the experiment on MCF7 EX-iCSCs and with A431 EX-iCSCs was “showed drug resistance characteristics” each time.
